Assay results as given in PMC10321640, “The VIPR2-selective antagonist KS-133 changes macrophage polarization and exerts potent anti-tumor effects as a single agent and in combination with an anti-PD-1 antibody” (PLOS ONE, 2023).
Where a SMILES comes first, the peptide text is derived from it. Bridges are numbered along the chain shown (N, C = ends).

Key:
CT26 tumors = assay: In vivo anti-tumor evaluation, CT26 subcutaneous allografts; design: species or system BALB/cCrSlc female mice; details: Fig 2A, KS-133 30 μg/mouse s.c. daily
Protocol: All experimental procedures that involved animals and their care were conducted in compliance with the Guide for the Care and Use of Laboratory Animals and ARRIVE guidelines. These animal experiments were approved by the Animal Care and Use Committee of Kagawa University (approval No. 21650) and conducted at Kagawa University in accordance with the guidelines. To establish subcutaneous allograft tumors, CT26 cells (1 × 10^5) were subcutaneously injected into the left groin region of BALB/cCrSlc female mice (6 weeks old; Japan SLC, Inc., Shizuoka, Japan) under isoflurane anesthesia. […] The tumor growth rate was recorded on days 1, 7, 14, and 21 by measuring the major and minor axes with a digital caliper. […]
Fig 2 Anti-tumor effects of KS-133 and KS-133 NPs with or without anti-PD-1 antibody in mice bearing CT26 subcutaneous allografts. […] (A) Anti-tumor efficacy of KS-133 (n = 9–10 mice per group, expressed as the mean ± SEM, *p < 0.01 and **p < 0.001 vs. vehicle control by two-way ANOVA). […] (B) Anti-tumor efficacy of KS-133 NPs (n = 11 mice per group, expressed as the mean ± SEM, *p < 0.05 and **p < 0.001 vs. vehicle control by two-way ANOVA). […] (C) Anti-tumor efficacy of KS-133 NPs and KS-133(P3S) NPs with an anti-PD-1 antibody (n = 6–8 mice per group, expressed as the mean ± SEM, *p < 0.01 and **p < 0.001 vs. Vehicle control by two-way ANOVA). […]

[1] = tested on: RAW264.7 murine macrophage-like cells; assay: In vitro gene expression of M1-like and M2-like macrophage markers (real-time PCR); assay type: cell-based; details: RAW264.7 in 20% CT26-CM/DMEM, 3 days
Protocol: The detailed method and DNA primer sequences were described previously. RAW264.7 murine macrophage-like cells and CT26.WT murine colorectal cancer cells (CRL-2638) were purchased from RIKEN BRC (Tsukuba, Japan) and American Type Cell Collection (Manassas, VA, USA), respectively. CT26 cells (4 × 10^6) were grown in T75 flask with 20 mL of RPMI medium containing 10% FBS for 3 days. The culture medium (CT26-CM) was collected and centrifuged at 400 g for 5 min. RAW264.7 cells (2.4 × 10^5) were incubated in 24-well plate in the presence or absence of KS-133 (KS-133 concentration = 1, 3, or 10 μM, DMSO concentration = 0.1%) with 20% CT26-CM/DMEM for 3 days. During the incubation, medium containing KS-133 was replaced every day. mRNA extraction was performed using ISOGEN (Nippon Gene, Tokyo, Japan) on day 3 after CT26-CM incubation, and cDNA was prepared. The gene expression of M1 markers (TNF-α, iNOS, CXCL10), M2 markers (Mrc-1, IL-1rn, CCL22), and β-actin was analyzed by real-time polymerase chain reaction (PCR) using a 7300 Fast Real-Time PCR System (Applied Biosystems, Thermo Fisher Scientific, MA, USA,) and Light Cycler Fast Start DNA Master kit (Applied Biosystems). The relative mRNA expression was determined using the 2^−ΔΔCt method. ΔΔCt was calculated using control group data.
It has been reported that when RAW264.7 cells are incubated in the presence of the culture supernatant of CT26 cells, M1-type macrophage marker mRNA expression is decreased, and that of M2-type macrophages is increased. Using this assay system, we evaluated whether KS-133 affect the mRNA expression of TNFα, iNOS, and CXCL10 as M1-type macrophage markers and Mrc-1, IL-1Rn, and CCL-22 as M2-type macrophage markers. […] Therefore, VIPR2 inhibition by KS-133 changes the macrophage polarity toward M1.
Fig 1 Variation of marker gene expression in M1- and M2-type macrophages in the presence of KS-133. Results are presented as the mean ± SEM (n = 3 independent experiments using separately treated cultures, *p < 0.05 vs. control by two-way ANOVA).

[2] = KS-133 10 μM, 0.1% DMSO, 2^−ΔΔCt, n = 3, p < 0.05 vs control

SMILES: CC[C@H](C)[C@H](NC(=O)[C@H](CC(C)C)NC(=O)[C@@H]1CC(=O)NCCCC[C@@H]2NC(=O)[C@@H]3CCCN3C(=O)[C@H](CC(C)C)NC(=O)[C@H](Cc3ccc(O)cc3)NC(=O)[C@@H]3CCCN3C(=O)[C@@H]3CCCN3C(=O)[C@@H](NC(C)=O)CSSC[C@H](NC(=O)[C@H](CC(C)C)NC(=O)[C@H](Cc3ccc(O)cc3)NC2=O)C(=O)N1)C(N)=O [KS-133] (Ac-CPPYLPKYLCDLI-NH2; disulfide 1-10; lactam 7-11)
- effect on CT26 tumor growth (in words) (CT26 tumors; alone or with anti-PD-1 antibody 200 μg/mouse i.p. three times in a week, combination p < 0.001 vs vehicle): tended to suppress CT26 tumor growth
- tumor volume, control group set as 100% (CT26 tumors; anti-PD-1 antibody 200 μg/mouse i.p. three times in a week, 3 weeks, n = 9–10 mice per group): 66%
- mRNA expression level of CXCL10 (M1-type macrophage marker) [1, 2]: significantly enhanced
- mRNA expression level of iNOS (M1-type macrophage marker) [1, 2]: significantly enhanced
- CCL22 expression (M2-type macrophage marker) [1]: no effect
- IL-1Rn expression (M2-type macrophage marker) [1]: no effect
- mRNA expression of Mrc-1 (M2-type macrophage marker) ([1]; n = 3, p < 0.05 vs control): significantly decreased
